Experiments:
Assay in all cases: KinaseProfiler Assay
ACK1(h) = ACK1(h) (Homo sapiens, UniProt Q07912)
Fer(h) = Fer(h) (Homo sapiens, UniProt P16591)
CHK2(h) = CHK2(h) (Homo sapiens, UniProt O96017)
CDK2/cyclinA(h) = CDK2/cyclinA(h) (Homo sapiens, UniProt P24941)
PKBβ(h) = PKBβ(h) (Homo sapiens, UniProt P31751)
SAPK3(h) = molecular target: T1, SAPK3(h) (Homo sapiens, UniProt P53778)
T1 sequence (P53778 1-367): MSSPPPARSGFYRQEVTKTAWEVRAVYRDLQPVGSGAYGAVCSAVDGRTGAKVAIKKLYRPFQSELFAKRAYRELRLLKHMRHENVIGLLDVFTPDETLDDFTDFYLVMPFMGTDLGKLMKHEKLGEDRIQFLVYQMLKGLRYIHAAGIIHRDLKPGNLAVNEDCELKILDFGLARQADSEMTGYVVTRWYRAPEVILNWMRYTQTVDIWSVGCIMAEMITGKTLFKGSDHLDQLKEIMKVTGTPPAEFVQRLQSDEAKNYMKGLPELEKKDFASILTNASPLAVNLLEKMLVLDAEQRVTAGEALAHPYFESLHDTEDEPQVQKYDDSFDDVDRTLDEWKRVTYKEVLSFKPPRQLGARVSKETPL

CaMKII(r) = molecular target: CaMKII(r)
PI 3-Kinaseδ(h) = molecular target: PI 3-Kinaseδ(h)
TSSK2(h) = molecular target: T2, TSSK2(h) (Homo sapiens, UniProt Q96PF2)
T2 sequence (Q96PF2 1-358): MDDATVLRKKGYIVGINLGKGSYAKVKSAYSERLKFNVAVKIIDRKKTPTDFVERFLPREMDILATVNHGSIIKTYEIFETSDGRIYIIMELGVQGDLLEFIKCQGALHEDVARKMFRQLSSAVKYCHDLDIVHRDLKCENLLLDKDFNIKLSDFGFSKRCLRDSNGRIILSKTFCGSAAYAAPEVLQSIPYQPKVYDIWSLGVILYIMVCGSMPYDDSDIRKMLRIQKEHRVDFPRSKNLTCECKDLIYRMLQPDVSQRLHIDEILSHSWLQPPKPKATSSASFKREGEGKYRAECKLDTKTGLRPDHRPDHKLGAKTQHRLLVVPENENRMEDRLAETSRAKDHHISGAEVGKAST

MuSK(h) = molecular target: T3, MuSK(h) (Homo sapiens, UniProt O15146)
T3 sequence (O15146 24-869): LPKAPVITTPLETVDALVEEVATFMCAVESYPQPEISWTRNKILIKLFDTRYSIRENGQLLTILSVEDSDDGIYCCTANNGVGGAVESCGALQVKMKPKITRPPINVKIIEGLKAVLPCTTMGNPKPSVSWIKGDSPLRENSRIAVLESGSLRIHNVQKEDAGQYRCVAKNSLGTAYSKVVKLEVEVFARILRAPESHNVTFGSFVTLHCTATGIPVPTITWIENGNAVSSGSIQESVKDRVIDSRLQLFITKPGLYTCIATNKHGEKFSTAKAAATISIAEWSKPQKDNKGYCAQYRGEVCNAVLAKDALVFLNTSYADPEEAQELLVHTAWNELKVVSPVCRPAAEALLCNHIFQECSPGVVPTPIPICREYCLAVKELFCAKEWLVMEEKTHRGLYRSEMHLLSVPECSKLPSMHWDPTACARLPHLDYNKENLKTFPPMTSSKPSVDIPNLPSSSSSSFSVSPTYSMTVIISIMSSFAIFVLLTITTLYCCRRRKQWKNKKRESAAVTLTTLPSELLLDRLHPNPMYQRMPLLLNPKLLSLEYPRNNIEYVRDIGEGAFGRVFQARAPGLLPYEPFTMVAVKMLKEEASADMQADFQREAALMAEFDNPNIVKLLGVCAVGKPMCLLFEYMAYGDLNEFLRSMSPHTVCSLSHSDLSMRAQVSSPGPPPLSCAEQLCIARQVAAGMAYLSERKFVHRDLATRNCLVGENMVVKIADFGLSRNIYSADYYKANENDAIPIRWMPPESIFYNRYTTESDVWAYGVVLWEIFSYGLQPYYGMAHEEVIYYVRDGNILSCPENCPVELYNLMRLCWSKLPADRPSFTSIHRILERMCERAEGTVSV

Chain of ACK1(h) (Q07912 whole entry): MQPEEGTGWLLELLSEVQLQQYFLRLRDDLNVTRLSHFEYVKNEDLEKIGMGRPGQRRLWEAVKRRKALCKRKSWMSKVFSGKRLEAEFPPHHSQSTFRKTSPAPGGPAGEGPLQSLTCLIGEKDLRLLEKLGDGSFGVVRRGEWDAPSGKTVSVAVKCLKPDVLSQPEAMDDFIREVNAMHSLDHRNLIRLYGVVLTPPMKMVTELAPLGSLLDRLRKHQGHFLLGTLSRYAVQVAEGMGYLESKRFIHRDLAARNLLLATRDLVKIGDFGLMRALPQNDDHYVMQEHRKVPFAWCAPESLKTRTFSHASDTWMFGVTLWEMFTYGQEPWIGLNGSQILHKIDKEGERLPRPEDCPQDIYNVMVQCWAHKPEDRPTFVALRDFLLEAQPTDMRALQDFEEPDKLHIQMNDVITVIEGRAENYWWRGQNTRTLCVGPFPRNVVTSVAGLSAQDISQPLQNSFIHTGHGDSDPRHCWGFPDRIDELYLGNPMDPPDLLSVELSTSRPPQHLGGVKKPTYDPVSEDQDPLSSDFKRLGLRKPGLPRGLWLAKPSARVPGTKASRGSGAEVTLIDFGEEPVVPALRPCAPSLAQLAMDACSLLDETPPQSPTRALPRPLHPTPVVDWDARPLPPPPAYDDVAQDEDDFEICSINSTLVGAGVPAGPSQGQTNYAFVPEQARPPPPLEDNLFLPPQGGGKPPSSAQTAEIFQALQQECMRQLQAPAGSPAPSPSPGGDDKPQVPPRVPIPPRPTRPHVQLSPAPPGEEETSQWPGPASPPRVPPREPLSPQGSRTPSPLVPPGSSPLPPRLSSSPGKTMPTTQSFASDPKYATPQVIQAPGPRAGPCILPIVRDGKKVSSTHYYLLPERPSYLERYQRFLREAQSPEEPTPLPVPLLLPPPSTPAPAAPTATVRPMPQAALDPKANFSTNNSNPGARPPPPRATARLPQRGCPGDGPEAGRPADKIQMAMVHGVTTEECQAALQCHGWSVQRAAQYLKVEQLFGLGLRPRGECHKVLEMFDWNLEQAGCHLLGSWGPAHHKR
Chain of Fer(h) (P16591 whole entry): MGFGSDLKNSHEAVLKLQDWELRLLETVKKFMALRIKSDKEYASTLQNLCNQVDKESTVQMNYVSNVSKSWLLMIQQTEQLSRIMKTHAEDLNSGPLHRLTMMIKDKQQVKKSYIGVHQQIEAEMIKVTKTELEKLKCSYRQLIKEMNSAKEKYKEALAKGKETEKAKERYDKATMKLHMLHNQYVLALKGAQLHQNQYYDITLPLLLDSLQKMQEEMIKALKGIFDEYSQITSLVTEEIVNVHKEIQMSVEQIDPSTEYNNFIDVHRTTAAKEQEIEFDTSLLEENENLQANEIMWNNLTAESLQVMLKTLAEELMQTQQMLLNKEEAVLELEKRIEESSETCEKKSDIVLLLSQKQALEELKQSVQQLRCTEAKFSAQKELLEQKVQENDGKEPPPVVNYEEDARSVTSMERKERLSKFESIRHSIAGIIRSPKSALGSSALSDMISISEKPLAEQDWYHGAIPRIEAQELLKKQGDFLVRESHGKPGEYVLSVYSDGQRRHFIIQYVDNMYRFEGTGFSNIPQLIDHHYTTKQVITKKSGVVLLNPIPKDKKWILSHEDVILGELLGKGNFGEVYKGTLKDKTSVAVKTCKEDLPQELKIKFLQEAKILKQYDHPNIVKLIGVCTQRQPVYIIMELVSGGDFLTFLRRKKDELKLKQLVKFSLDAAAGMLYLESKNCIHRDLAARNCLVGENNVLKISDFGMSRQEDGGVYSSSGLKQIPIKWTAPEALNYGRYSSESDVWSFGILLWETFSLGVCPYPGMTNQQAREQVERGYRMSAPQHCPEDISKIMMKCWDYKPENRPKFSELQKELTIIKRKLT
Chain of PKBβ(h) (P31751 whole entry): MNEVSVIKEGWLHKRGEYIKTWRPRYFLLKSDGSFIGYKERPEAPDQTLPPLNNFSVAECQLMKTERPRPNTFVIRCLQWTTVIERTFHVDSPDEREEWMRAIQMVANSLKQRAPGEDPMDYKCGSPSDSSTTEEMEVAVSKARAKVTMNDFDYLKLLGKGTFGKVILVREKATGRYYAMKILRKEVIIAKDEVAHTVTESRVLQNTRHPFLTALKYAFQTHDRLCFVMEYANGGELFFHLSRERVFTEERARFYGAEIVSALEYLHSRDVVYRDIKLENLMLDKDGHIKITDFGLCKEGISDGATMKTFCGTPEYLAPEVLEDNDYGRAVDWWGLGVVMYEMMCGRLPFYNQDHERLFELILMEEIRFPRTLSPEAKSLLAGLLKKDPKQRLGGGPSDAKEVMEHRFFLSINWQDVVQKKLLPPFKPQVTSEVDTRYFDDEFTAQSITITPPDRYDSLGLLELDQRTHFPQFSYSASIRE
Chain of CHK2(h) (O96017 whole entry): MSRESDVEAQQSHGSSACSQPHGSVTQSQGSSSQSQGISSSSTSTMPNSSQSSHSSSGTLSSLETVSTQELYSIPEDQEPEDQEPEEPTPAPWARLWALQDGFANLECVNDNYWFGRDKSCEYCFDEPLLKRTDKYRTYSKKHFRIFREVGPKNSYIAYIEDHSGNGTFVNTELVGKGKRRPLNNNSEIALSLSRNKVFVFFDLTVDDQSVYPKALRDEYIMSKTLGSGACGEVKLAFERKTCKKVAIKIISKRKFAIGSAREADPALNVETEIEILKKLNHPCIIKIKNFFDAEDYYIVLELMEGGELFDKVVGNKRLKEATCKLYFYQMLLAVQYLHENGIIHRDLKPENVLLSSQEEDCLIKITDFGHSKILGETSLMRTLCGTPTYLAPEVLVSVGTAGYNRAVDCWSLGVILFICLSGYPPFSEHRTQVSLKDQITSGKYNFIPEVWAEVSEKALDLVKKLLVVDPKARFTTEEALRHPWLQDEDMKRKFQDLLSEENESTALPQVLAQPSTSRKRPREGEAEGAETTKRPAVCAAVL

CC(C)CCC(=O)[C@]1(O)C(O)=C(C(=O)C(C)C)C(=O)[C@H]1CCC(C)C [TH2, tetrahydroiso-cohumulone]
kinase inhibition (ACK1(h); 1 μg/ml): 117% of control
kinase inhibition (ACK1(h); 5 μg/ml): 124% of control
kinase inhibition (ACK1(h); 25 μg/ml): 97% of control
kinase inhibition (ACK1(h); 50 μg/ml): 86% of control
kinase inhibition (ACK1(h); 100 μg/ml): 81% of control
kinase inhibition (Fer(h); 1 μg/ml): 110% of control
kinase inhibition (Fer(h); 5 μg/ml): 102% of control
kinase inhibition (Fer(h); 25 μg/ml): 104% of control
kinase inhibition (Fer(h); 50 μg/ml): 91% of control
kinase inhibition (Fer(h); 100 μg/ml): 88% of control
kinase inhibition (CHK2(h); 1 μg/ml): 107% of control
kinase inhibition (CHK2(h); 5 μg/ml): 107% of control
kinase inhibition (CHK2(h); 25 μg/ml): 105% of control
kinase inhibition (CHK2(h); 50 μg/ml): 108% of control
kinase inhibition (CHK2(h); 100 μg/ml): 97% of control
kinase inhibition (CDK2/cyclinA(h); 1 μg/ml): 114% of control
kinase inhibition (CDK2/cyclinA(h); 5 μg/ml): 124% of control
kinase inhibition (CDK2/cyclinA(h); 25 μg/ml): 95% of control
kinase inhibition (CDK2/cyclinA(h); 50 μg/ml): 98% of control
kinase inhibition (CDK2/cyclinA(h); 100 μg/ml): 87% of control
kinase inhibition (PKBβ(h); 1 μg/ml): 104% of control
kinase inhibition (PKBβ(h); 5 μg/ml): 97% of control
kinase inhibition (PKBβ(h); 25 μg/ml): 68% of control
kinase inhibition (PKBβ(h); 50 μg/ml): 43% of control
kinase inhibition (PKBβ(h); 100 μg/ml): 31% of control
kinase inhibition (SAPK3(h); 1 μg/ml): 109% of control
kinase inhibition (SAPK3(h); 5 μg/ml): 99% of control
kinase inhibition (SAPK3(h); 25 μg/ml): 114% of control
kinase inhibition (SAPK3(h); 50 μg/ml): 122% of control
kinase inhibition (SAPK3(h); 100 μg/ml): 106% of control
kinase inhibition (CaMKII(r); 1 μg/ml): 105% of control
kinase inhibition (CaMKII(r); 5 μg/ml): 106% of control
kinase inhibition (CaMKII(r); 25 μg/ml): 105% of control
kinase inhibition (CaMKII(r); 50 μg/ml): 91% of control
kinase inhibition (CaMKII(r); 100 μg/ml): 63% of control
kinase inhibition (PI 3-Kinaseδ(h); 1 μg/ml): 95% of control
kinase inhibition (PI 3-Kinaseδ(h); 5 μg/ml): 100% of control
kinase inhibition (PI 3-Kinaseδ(h); 25 μg/ml): 72% of control
kinase inhibition (PI 3-Kinaseδ(h); 50 μg/ml): 42% of control
kinase inhibition (PI 3-Kinaseδ(h); 100 μg/ml): 19% of control
kinase inhibition (TSSK2(h); 1 μg/ml): 106% of control
kinase inhibition (TSSK2(h); 5 μg/ml): 99% of control
kinase inhibition (TSSK2(h); 25 μg/ml): 100% of control
kinase inhibition (TSSK2(h); 50 μg/ml): 97% of control
kinase inhibition (TSSK2(h); 100 μg/ml): 87% of control
kinase inhibition (MuSK(h); 1 μg/ml): 104% of control
kinase inhibition (MuSK(h); 5 μg/ml): 101% of control
kinase inhibition (MuSK(h); 25 μg/ml): 99% of control
kinase inhibition (MuSK(h); 50 μg/ml): 98% of control
kinase inhibition (MuSK(h); 100 μg/ml): 97% of control

From patent publication US20100137449A1, “SUBSTITUTED 1,3-CYCLOPENTADIONE MULTI-TARGET PROTEIN KINASE MODULATORS OF CANCER, ANGIOGENESIS AND THE INFLAMMATORY PATHWAYS ASSOCIATED THEREWITH” (METAPROTEOMICS, LLC, priority 2007, published 2010)
